Columns and labels:
[1] = system: SUMO-1 acetylation; experiment: Modulation of SUMO-1 acetylation in H1299 cells expressing SUMO-1; type: cell-based, human; settings: 500 nM TSA or 1 μM etoposide, versus untreated cells
Experimental: FIG. 3. SUMO-1 is acetylated when bound to its substrates. A. A polyclonal antibody raised against a SUMO-1 peptide SEIHF{Lys-Ac}[…] acetylated at K37 was raised and purified by peptide affinity purification. The specificity of this antibody was tested first in an in vitro acetylation reaction similar to that described in FIG. 2A. SUMO-1 was incubated in the presence (lane 3) or absence (lane 2) of CBP and cold Acetyl-coenzyme A. Lane 1 contains the acetylation reaction with CBP alone without SUMO-1. Samples were subjected to SDS electrophoresis, blotted on a PDF membrane, and probed with Ac-K37-Ab in immunoblot (upper panel). After chemi-luminescence, the membrane was stained with Comassie Brilliant Blue to reveal SUMO-1 (lower panel). B. Acetylation of SUMO-1 in vivo. Control H1299 cells (lanes 1 and 4) or H1299 expressing naïve SUMO-1 (lanes 2 and 5) or a SUMO-1 harboring lysine to arginine replacements at position K37-K39 and K45-K46-K48 (SUMOK37-K48R, lanes 3 and 6) were induced with tetracycline. […] Following electrophoresis and transfer, membranes were immuno-blotted with the Ac-K37-Ab (left panel, lanes 1-3). Forty micrograms of total cell extracts were probed with the anti-Flag antibody in direct immuno-blot (right panel, lanes 4-6). The position of free SUMO-1 and of SUMO-1 conjugated to RanGap is indicated by arrows. C. Modulation of SUMO-1 acetylation by deacetylases and by DNA damaging agents. H1299 cells expressing SUMO-1 were left untreated (lanes 1 and 5) or they were treated with 500 nM TSA (lanes 2 and 6), with 1 μM etoposide (lanes 3 and 7), or with 100 mM H2O2 (lanes 4 and 8). Cell extracts were prepared in RIPA buffer, immuno-precipitated with the anti-Flag antibody and processed in immuno-blot with the Ac-K37-Ab as described in B (lanes 1-4). Total cell extracts are shown in the right panel. The position of SUMO-1, RanGaP and of SUMO-1 conjugates is indicated. Full arrows indicate non specific reactivity of the Ac-K37-Ab with heavy and light chains of the anti-Flag immuno-precipitation.
Unless otherwise indicated, cell extracts were prepared in RIPA buffer (0.1% SDS; 50 mM Tris.Cl, pH 6.8; 150 mM NaCl; 0.5% Nonidet P-40; 2 mM EDTA) supplemented with protease a protease inhibitor mixture, with TSA (500 μM) and with […] NEM as an inhibitor of de-sumoylation. Treatment with etoposide was performed at […] overnight. When probed with the anti-SUMO or anti-acetyl-K37 antibody (37-1Ab) in direct immuno-blot, membranes where treated with 6 M Guanidine for 30 minutes, followed by incubation in blocking solution. The Ac-K37 (37-1Ab) antibody was used to a 1:500 dilution in direct immuno-blots on in vitro acetylation reactions (i.e., FIG. 3A) and to a 1:250 dilution for the experiments in cells and in murine tumors. […]

[2] = molecular target: T1, CBP (Homo sapiens, UniProt Q92793); experiment: In vitro acetylation reaction with CBP; type: biochemical; settings: purified protein, 14C-acetyl CoA, autoradiography
T1 construct: purified SUMO-1 protein and the catalytic domain of several acetyltransferases, specifically of CBP and PCAF; purchased Biomol
Experimental: FIG. 2. Identification of an acetylated domain of SUMO-1 conserved among SUMO family members. A. Purified SUMO1 was subjected to an in vitro acetylation reaction in the absence (lane 2) or presence (lane 3) of CBP, and of 14C-Acetyl-Coenzyme A. Lane 1 contain CBP in the absence of SUMO-1. Reactions were assembled in 30 μl volume, and developed with autoradiography. 1/20 of the reaction mixtures were run independently and proteins were visualized with Coomassie Brilliant Blue staining (lanes 4-6). The position of SUMO-1 and CBP is indicated by arrows. B. Peptide competition experiments. The following acetylated peptides were used: K25-K27:YIK(Ac)LK(Ac)VIG (lane 2); peptide K37-K39:HFK(Ac)VK(Ac)MTT (lane 3); peptide K45-K46-K48:HLK(Ac)K(Ac)LK(Ac)ES (lane 4). Lane 1 contains the acetylation reaction with a control peptide ([…]) and lane 5 contains the acetylation reaction without peptide(s). Polypeptides were incubated in a 10 fold excess relatively to full length SUMO-1. C. Identification of lysines residues acetylated in vitro and in vivo by mass spectrometry and alignment of acetylated residues in SUMO-1 with SUMO-2 and SUMO-3. Acetylated lysines of SUMO-1 are indicated by arrows and bolded in red, and conserved residues are shown. Based on the results of Mass Spectrometry we name the domain comprised between amino acid K37 to K48 SUMO-1 Acetylated Domain, or SAD. D. Acetylation of SUMO family members. Acetylation reactions were carried out as described in A. SUMO-1 (lanes 2, 5) SUMO-2 (lanes 3, 6), or SUMO-3 (lanes 4, 7) were subjected to an acetylation reaction in absence (lanes 2-4) or presence (lanes 5-7; indicated by +) of CBP. Lane 1 contains an acetylation reaction with CBP without SUMO proteins. […]
From the mass spectrometric analysis performed on the in vitro reactions, it was determined that CBP was able to acetylate the same residues that were found acetylated in vivo, specifically K37, K39 and K48. […]

[3] = molecular target: T2, PCAF (Homo sapiens, UniProt Q92831); experiment: In vitro acetylation reaction with PCAF; type: biochemical; settings: purified protein, 14C-acetyl CoA
T2 construct: purified SUMO-1 protein and the catalytic domain of several acetyltransferases, specifically of CBP and PCAF
Experimental: Acetylation reactions were typically assembled in a 30 μl volume, containing HAT buffer (1×25 mM Tris-HCl ph 7.9; 50 mM NaCl, 1 mM DTT), 6 μl of ^14C-Acetyl-Coenzyme A (Amersham) or cold Acetyl-Coenzyme A (lithium salt, from Roche), 1-2 μg CBP, 0.5-1 μg of SUMO proteins.
The discovery of such similarities implied that this SUMO-1 domain might functionally mimic the acetylated state of similar domains of transcription factors. Two approaches were used to determine if the identified SUMO-1 domain was acetylated. First, acetylation assays were performed in vitro using purified SUMO-1 protein and the catalytic domain of several acetyltransferases, specifically of CBP and PCAF, in the presence of 14C-acetyl CoA. […] To preliminarily map the site(s) of acetylation, we tested the ability of cold synthetic polypeptides corresponding to specific SUMO-1 regions, to inhibit CBP-mediated acetylation of the full-length protein in a reaction containing 14C-acetyl CoA.

[4] = system: H1299 cells; experiment: Cell cycle analysis by flow cytometry; type: cell-based, human; settings: H1299 cells infected with adenovirus expressing p53, 72 hours after infection
Experimental: FIG. 5. […] 72 hours after infection, cells were harvested and their cell cycle profile was analyzed (see materials and methods). B-C.
Flow cytometry was performed as described previously by Knights, C. D., et al. J. Cell Biol. 173(4):533-544 (2006).

[5] = molecular target: T1, CBP; experiment: Peptide competition of CBP-mediated acetylation of full-length SUMO-1; type: biochemical; settings: cold acetylated peptide in 10 fold excess relatively to full length SUMO-1; 14C-acetyl CoA
Experimental: FIG. 2. Identification of an acetylated domain of SUMO-1 conserved among SUMO family members. A. Purified SUMO1 was subjected to an in vitro acetylation reaction in the absence (lane 2) or presence (lane 3) of CBP, and of 14C-Acetyl-Coenzyme A. Lane 1 contain CBP in the absence of SUMO-1. Reactions were assembled in 30 μl volume, and developed with autoradiography. 1/20 of the reaction mixtures were run independently and proteins were visualized with Coomassie Brilliant Blue staining (lanes 4-6). The position of SUMO-1 and CBP is indicated by arrows. B. Peptide competition experiments. The following acetylated peptides were used: K25-K27:YIK(Ac)LK(Ac)VIG (lane 2); peptide K37-K39:HFK(Ac)VK(Ac)MTT (lane 3); peptide K45-K46-K48:HLK(Ac)K(Ac)LK(Ac)ES (lane 4). Lane 1 contains the acetylation reaction with a control peptide ([…]) and lane 5 contains the acetylation reaction without peptide(s). Polypeptides were incubated in a 10 fold excess relatively to full length SUMO-1. C. Identification of lysines residues acetylated in vitro and in vivo by mass spectrometry and alignment of acetylated residues in SUMO-1 with SUMO-2 and SUMO-3. Acetylated lysines of SUMO-1 are indicated by arrows and bolded in red, and conserved residues are shown. Based on the results of Mass Spectrometry we name the domain comprised between amino acid K37 to K48 SUMO-1 Acetylated Domain, or SAD. D. Acetylation of SUMO family members. Acetylation reactions were carried out as described in A. SUMO-1 (lanes 2, 5) SUMO-2 (lanes 3, 6), or SUMO-3 (lanes 4, 7) were subjected to an acetylation reaction in absence (lanes 2-4) or presence (lanes 5-7; indicated by +) of CBP. Lane 1 contains an acetylation reaction with CBP without SUMO proteins.
Acetylation reactions were typically assembled in a 30 μl volume, containing HAT buffer (1×25 mM Tris-HCl ph 7.9; 50 mM NaCl, 1 mM DTT), 6 μl of ^14C-Acetyl-Coenzyme A (Amersham) or cold Acetyl-Coenzyme A (lithium salt, from Roche), 1-2 μg CBP, 0.5-1 μg of SUMO proteins. […]

T1 sequence (Q92793 1323-1700 limits assumed): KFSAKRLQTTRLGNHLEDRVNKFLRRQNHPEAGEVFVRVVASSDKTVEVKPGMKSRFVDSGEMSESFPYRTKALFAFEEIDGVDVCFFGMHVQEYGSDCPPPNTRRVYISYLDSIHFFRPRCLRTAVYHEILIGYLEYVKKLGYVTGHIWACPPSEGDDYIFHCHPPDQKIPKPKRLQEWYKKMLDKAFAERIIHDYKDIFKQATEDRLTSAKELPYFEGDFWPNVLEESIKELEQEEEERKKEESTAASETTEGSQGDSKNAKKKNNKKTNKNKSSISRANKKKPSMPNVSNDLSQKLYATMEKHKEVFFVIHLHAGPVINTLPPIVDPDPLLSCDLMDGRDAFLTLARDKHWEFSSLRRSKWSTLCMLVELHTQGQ
T2 sequence (Q92831 503-651 limits assumed, species assumed): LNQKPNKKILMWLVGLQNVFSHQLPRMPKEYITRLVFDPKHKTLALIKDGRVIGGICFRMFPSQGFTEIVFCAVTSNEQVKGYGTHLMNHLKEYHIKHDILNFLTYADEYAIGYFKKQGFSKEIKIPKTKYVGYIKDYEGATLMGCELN

CC(/C=C/C(=O)NO)=C\[C@@H](C)C(=O)c1ccc(N(C)C)cc1 [TSA]
acetylation signal on free SUMO-1 [1]: stronger than that seen in untreated cells | levels of acetylation on RanGAP [1]: only modestly influenced

SUMO-1: small ubiquitin-like modifier protein, SEQ ID NO:1; purified from Biomol or Flag-tagged expressed in H1299 cells
acetylation by CBP [2]: efficiently acetylated | acetylation by PCAF [3]: not by PCAF | apoptotic cells [4]: 15%

SUMO-3: purified SUMO-3 from Biomol, SEQ ID NO:3
acetylation by CBP [2]: robustly acetylated

YIK(Ac)LK(Ac)VIG [K25 and K26]
inhibition of CBP-mediated acetylation of full-length SUMO-1 [5]: only weakly abrogated

HLK(Ac)K(Ac)LK(Ac)ES [K45-K46-K48]
inhibition of CBP-mediated acetylation of full-length SUMO-1 [5]: completely blocked acetylation

HFK(Ac)VK(Ac)MTT [K37-K39]
inhibition of CBP-mediated acetylation of full-length SUMO-1 [5]: completely blocked acetylation

SUMO-2: purified SUMO-2 from Biomol, SEQ ID NO:2
acetylation by CBP [2]: robustly acetylated

COc1cc([C@@H]2c3cc4c(cc3[C@@H](O[C@@H]3O[C@@H]5CO[C@@H](C)O[C@H]5[C@H](O)[C@H]3O)[C@H]3COC(=O)[C@H]23)OCO4)cc(OC)c1O [etoposide]
acetylation signal on free SUMO-1 [1]: stronger than that seen in untreated cells | levels of acetylation on RanGAP [1]: only modestly influenced
